Assay results from article PMC12203862, “BroadAMP-GPT: AI-Driven generation of broad-spectrum antimicrobial peptides for combating multidrug-resistant ESKAPE pathogens” (Gut Microbes, 2025).
In brackets after ≈: the same amount, converted by molar mass. Read-outs that look alike come from different tables or passages of the source.

Key:
S. aureus ATCC 29213 = experiment: microbe, parasite or virus in culture; format: cell-based; details: Staphylococcus aureus, ATCC29213; Table 1; S. aureus ATCC 29213; broth microdilution, CLSI M100-ED34; read-out: MIC
E. faecalis ES01 = experiment: microbe, parasite or virus in culture; format: cell-based; details: Enterococcus faecalis; Table 1; E. faecalis ES01; ermB, vanB; broth microdilution; read-out: MIC
Method: (§1) Bacterial strains and growth conditions: All Gram-negative and Gram-positive bacterial strains (Supplementary Table S8) were cultured in Luria-Bertani (LB) or trypticase soy broth (TSB) agar plates, respectively, and incubated overnight at 37 °C unless specifically indicated. A single colony of the tested bacterial strains was inoculated into medium broth with shaking at 220 rpm for further experiments.
(§2) Minimal inhibitory concentrations: Antimicrobial susceptibility testing was performed by broth microdilution method for AMPs against Gram-positive and Gram-negative pathogens above mentioned, following the methods of document CLSI M100-ED34.[43] The MICs were defined as the lowest concentrations that inhibit visible growth of the tested bacteria. E. coli ATCC 25,922 and S. aureus ATCC 29,213 were served as quality controls.

E. faecalis J2 = experiment: microbe, parasite or virus in culture; format: cell-based; details: Enterococcus faecalis; Table 1; E. faecalis J2; ermB, optrA; broth microdilution; read-out: MIC
Method: as §1, §2

E. faecalis JH2-2 = experiment: microbe, parasite or virus in culture; format: cell-based; details: Enterococcus faecalis, JH22; Table 1; E. faecalis JH2-2; broth microdilution; read-out: MIC
Method: as §1, §2

E. faecalis SF23-1 = experiment: microbe, parasite or virus in culture; format: cell-based; details: Enterococcus faecalis, SF231; Table 1; E. faecalis SF23-1; ermB, tetL, cfr; broth microdilution; read-out: MIC
Method: as §1, §2

E. faecium HFY01 = experiment: microbe, parasite or virus in culture; format: cell-based; details: Enterococcus faecium; Table 1; E. faecium HFY01; broth microdilution; read-out: MIC
Method: as §1, §2

E. faecium MC38 = experiment: microbe, parasite or virus in culture; format: cell-based; details: Enterococcus faecium; Table 1; E. faecium MC38; ermB, optrA; broth microdilution; read-out: MIC
Method: as §1, §2

E. faecium QF31 = experiment: microbe, parasite or virus in culture; format: cell-based; details: Enterococcus faecium; Table 1; E. faecium QF31; ermB, cfr; broth microdilution; read-out: MIC
Method: as §1, §2

S. agalactiae DL03 = experiment: microbe, parasite or virus in culture; format: cell-based; details: Streptococcus agalactiae; Table 1; S. agalactiae DL03; ermB; broth microdilution; read-out: MIC
Method: as §1, §2

S. aureus M147-2 = experiment: microbe, parasite or virus in culture; format: cell-based; details: Staphylococcus aureus, M1472; Table 1; S. aureus M147-2; ermB, tetL, cfr; broth microdilution; read-out: MIC
Method: as §1, §2

S. aureus M92-1 = experiment: microbe, parasite or virus in culture; format: cell-based; details: Staphylococcus aureus, M921; Table 1; S. aureus M92-1; ermB, tetL, optrA; broth microdilution; read-out: MIC
Method: as §1, §2

S. aureus YZSA-15 = experiment: microbe, parasite or virus in culture; format: cell-based; details: Staphylococcus aureus, YZSA15; Table 1; S. aureus YZSA-15; ermC, vanB; broth microdilution; read-out: MIC
Method: as §1, §2

S. aureus YZSA-21 = experiment: microbe, parasite or virus in culture; format: cell-based; details: Staphylococcus aureus, YZSA21; Table 1; S. aureus YZSA-21; ermC; broth microdilution; read-out: MIC
Method: as §1, §2

S. aureus YZSA-24 = experiment: microbe, parasite or virus in culture; format: cell-based; details: Staphylococcus aureus, YZSA24; Table 1; S. aureus YZSA-24; ermC, mecA; broth microdilution; read-out: MIC
Method: as §1, §2

S. pyogenes DL02 = experiment: microbe, parasite or virus in culture; format: cell-based; details: Streptococcus pyogenes; Table 1; S. pyogenes DL02; ermB; broth microdilution; read-out: MIC
Method: as §1, §2

S. suis SH0918 = experiment: microbe, parasite or virus in culture; format: cell-based; details: Streptococcus suis; Table 1; S. suis SH0918; ermB, tetO, optrA; broth microdilution; read-out: MIC
Method: as §1, §2

S. suis P1/7 = experiment: microbe, parasite or virus in culture; details: Streptococcus suis, P1/7
Method: as §1
as §2, with “bacteria.” for “bacteria. E. coli ATCC 25,922 and S. aureus ATCC 29,213 were served as quality controls.”

A. baumannii 7979 = experiment: microbe, parasite or virus in culture; format: cell-based; details: Acinetobacter baumannii; Table 1; A. baumannii 7979; broth microdilution; read-out: MIC
Method: as §1, §2

A. baumannii AB11 = experiment: microbe, parasite or virus in culture; format: cell-based; details: Acinetobacter baumannii
Method: as §1, §2

E. coli ATCC 25922 = experiment: microbe, parasite or virus in culture; format: cell-based; details: Escherichia coli, ATCC25922
Method: as §1, §2

K. pneumoniae 9-1 = experiment: microbe, parasite or virus in culture; format: cell-based; details: Klebsiella pneumoniae, 91; Table 1; K. pneumoniae 9-1; broth microdilution; read-out: MIC
Method: as §1, §2

P. aeruginosa PA14 = experiment: microbe, parasite or virus in culture; format: cell-based; details: Pseudomonas aeruginosa
Method: as §1, §2

P. aeruginosa PAO1 = experiment: microbe, parasite or virus in culture; format: cell-based; details: Pseudomonas aeruginosa; Table 1; P. aeruginosa PAO1; broth microdilution; read-out: MIC
Method: as §1, §2

S. enteritis S1 = experiment: organism not typed; format: cell-based; details: Table 1; S. enteritis S1; broth microdilution; read-out: MIC
Method: as §1, §2

[1] = Table 1, A. baumannii AB11, broth microdilution, read-out: MIC
[2] = Table 1, E. coli ATCC 25922, broth microdilution, read-out: MIC
[3] = Table 1, P. aeruginosa PA14, broth microdilution, read-out: MIC

SMILES	MIC (S. aureus ATCC 29213) [µg/mL]	MIC (E. faecalis ES01) [µg/mL]	MIC (E. faecalis J2) [µg/mL]	MIC (E. faecalis JH2-2) [µg/mL]	MIC (E. faecalis SF23-1) [µg/mL]	MIC (E. faecium HFY01) [µg/mL]	MIC (E. faecium MC38) [µg/mL]	MIC (E. faecium QF31) [µg/mL]	MIC (S. agalactiae DL03) [µg/mL]	MIC (S. aureus M147-2) [µg/mL]	MIC (S. aureus M92-1) [µg/mL]	MIC (S. aureus YZSA-15) [µg/mL]	MIC (S. aureus YZSA-21) [µg/mL]	MIC (S. aureus YZSA-24) [µg/mL]	MIC (S. pyogenes DL02) [µg/mL]	MIC (S. suis SH0918) [µg/mL]	MIC (S. suis P1/7) [µg/mL]	MIC (A. baumannii 7979) [µg/mL]	MIC (K. pneumoniae 9-1) [µg/mL]	MIC (P. aeruginosa PAO1) [µg/mL]	other results
CC[C@H]1OC(=O)[C@H](C)[C@@H](O[C@H]2C[C@@](C)(OC)[C@@H](O)[C@H](C)O2)[C@H](C)[C@@H](O[C@@H]2O[C@H](C)C[C@H](N(C)C)[C@H]2O)[C@](C)(O)C[C@@H](C)C(=O)[C@H](C)[C@@H](O)[C@]1(C)O [ERY, Erythromycin]	1 (≈ 1.36 µM)	> 64	> 64	0.25 (≈ 0.341 µM)	> 64	2 (≈ 2.73 µM)	> 64	> 64	> 64	> 64	> 64	> 64	> 64	> 63	> 64	> 64	0.125 (≈ 0.17 µM)	–	–	–	–
CC1(C)S[C@@H]2[C@H](NC(=O)[C@H](N)c3ccccc3)C(=O)N2[C@H]1C(=O)O [AMP, Ampicillin]	1 (≈ 2.86 µM)	16 (≈ 45.8 µM)	16 (≈ 45.8 µM)	16 (≈ 45.8 µM)	16 (≈ 45.8 µM)	1 (≈ 2.86 µM)	32 (≈ 91.6 µM)	32 (≈ 91.6 µM)	0.25 (≈ 0.715 µM)	16 (≈ 45.8 µM)	16 (≈ 45.8 µM)	2 (≈ 5.72 µM)	1 (≈ 2.86 µM)	> 64	0.5 (≈ 1.43 µM)	0.25 (≈ 0.715 µM)	0.5 (≈ 1.43 µM)	> 64	> 64	> 64	MIC (A. baumannii AB11; [1]): < 0.06 µg/mL; MIC (E. coli ATCC 25922; [2]): 2 µg/mL (≈ 5.72 µM); MIC (P. aeruginosa PA14; [3]): > 64 µg/mL; MIC (S. enteritis S1): 32 µg/mL (≈ 91.6 µM)
C[C@H]1COc2c(N3CCN(C)CC3)c(F)cc3c(=O)c(C(=O)O)cn1c23 [LVX, Levofloxacin]	–	–	–	–	–	–	–	–	–	–	–	–	–	–	–	–	–	> 64	> 64	0.5 (≈ 1.38 µM)	MIC (A. baumannii AB11; AB11): 0.125 µg/mL (≈ 0.346 µM); MIC (E. coli ATCC 25922): 0.125 µg/mL (≈ 0.346 µM); MIC (P. aeruginosa PA14; PA14): 0.125 µg/mL (≈ 0.346 µM); MIC (S. enteritis S1): 0.5 µg/mL (≈ 1.38 µM)

Now from value to compound, other results behind:

MIC (S. aureus ATCC 29213) [µg/mL]	MIC (E. faecalis ES01) [µg/mL]	MIC (E. faecalis J2) [µg/mL]	MIC (E. faecalis JH2-2) [µg/mL]	MIC (E. faecalis SF23-1) [µg/mL]	MIC (E. faecium HFY01) [µg/mL]	MIC (E. faecium MC38) [µg/mL]	MIC (E. faecium QF31) [µg/mL]	MIC (S. agalactiae DL03) [µg/mL]	MIC (S. aureus M147-2) [µg/mL]	MIC (S. aureus M92-1) [µg/mL]	MIC (S. aureus YZSA-15) [µg/mL]	MIC (S. aureus YZSA-21) [µg/mL]	MIC (S. aureus YZSA-24) [µg/mL]	MIC (S. pyogenes DL02) [µg/mL]	MIC (S. suis SH0918) [µg/mL]	MIC (S. suis P1/7) [µg/mL]	MIC (A. baumannii 7979) [µg/mL]	MIC (K. pneumoniae 9-1) [µg/mL]	MIC (P. aeruginosa PAO1) [µg/mL]	SMILES	other results
1 (≈ 2.96 µM)	2 (≈ 5.93 µM)	8 (≈ 23.7 µM)	0.5 (≈ 1.48 µM)	16 (≈ 47.4 µM)	2 (≈ 5.93 µM)	2 (≈ 5.93 µM)	2 (≈ 5.93 µM)	1 (≈ 2.96 µM)	8 (≈ 23.7 µM)	8 (≈ 23.7 µM)	0.5 (≈ 1.48 µM)	1 (≈ 2.96 µM)	0.5 (≈ 1.48 µM)	< 0.06	8 (≈ 23.7 µM)	0.125 (≈ 0.371 µM)	–	–	–	CC(=O)NC[C@H]1CN(c2ccc(N3CCOCC3)c(F)c2)C(=O)O1 [LZD, linezolid]	–
1 (≈ 2.09 µM)	> 64	> 64	4 (≈ 8.38 µM)	8 (≈ 16.8 µM)	< 0.06	> 64	> 64	16 (≈ 33.5 µM)	> 64	> 64	0.5 (≈ 1.05 µM)	0.5 (≈ 1.05 µM)	1 (≈ 2.09 µM)	1 (≈ 2.09 µM)	16 (≈ 33.5 µM)	4 (≈ 8.38 µM)	> 64	> 64	0.125 (≈ 0.262 µM)	CNC(C)C1CCC(N)C(OC2C(N)CC(N)C(OC3OCC(C)(O)C(NC)C3O)C2O)O1 (stereo not drawn) [GEN, gentamicin]	MIC (A. baumannii AB11; [1]): < 0.06 µg/mL; MIC (E. coli ATCC 25922; [2]): 4 µg/mL (≈ 8.38 µM); MIC (P. aeruginosa PA14; [3]): < 0.06 µg/mL; MIC (S. enteritis S1): 0.25 µg/mL (≈ 0.523 µM)
–	–	–	–	–	–	–	–	–	–	–	–	–	–	–	–	–	> 64	4 (≈ 10.4 µM)	0.5 (≈ 1.3 µM)	C[C@@H](O)[C@H]1C(=O)N2C(C(=O)O)=C(S[C@@H]3CN[C@H](C(=O)N(C)C)C3)[C@H](C)[C@H]12 [MEM, Meropenem]	MIC (A. baumannii AB11; [1]): < 0.06 µg/mL; MIC (E. coli ATCC 25922; [2]): 0.25 µg/mL (≈ 0.652 µM); MIC (P. aeruginosa PA14; [3]): 0.5 µg/mL (≈ 1.3 µM); MIC (S. enteritis S1): 0.25 µg/mL (≈ 0.652 µM)
